Consider 2 compounds from US20190083460A1, “ANALGESIC COMPOUNDS” (ZENO ROYALTIES & MILESTONES, LLC, priority 2016, published 2019).

This assay relates to male ICR mice. Briefly: Formalin Paw Test. Format: in vivo. Conditions: 30 mg/kg intraperitoneal; for Early Phase: early/acute phase (0-10 minutes) after 2% formalin into hind paw; for Late Phase: late/tonic phase (10-35 minutes) after 2% formalin into hind paw. Here is the method: One test compound or the vehicle was administered to each mouse in each test group (8 mice per group). Non-fasted male ICR mice weighing 23±3 g were used. Test compounds were administered at a concentration of 3 mg/kg, 10 mg/kg, 15 mg/kg, 30 mg/kg, 60 mg/kg, 100 mg/kg, 200 mg/kg or 300 mg/kg; morphine was administered at a concentration of 5 mg/kg; and acetaminophen was administered at a concentration of 200 mg/kg. The control group received the vehicle (5% DMSO/40% PEG400/20% HPbCD/Saline). After 30 or 60 minutes, a 2% formalin solution (0.02 mL) was injected into one hind paw (sub-plantar) of each mouse. Responses were measured every 5 minutes after the formalin injection for 35 minutes.
The results in Table A are for intraperitoneal administration. In Table A, ‘A’ designates <70 licks/sec, ‘B’ designates ≥70 licks/sec and <165 licks/sec, and ‘C’ designates ≥165 licks/sec.

With `NC1CC2(COC2)C1` [Compound I-1], the “Early Phase” value is “B (‘B’ designates ≥70 licks/sec and <165 licks/sec)”; the “Late Phase” value is “B (‘B’ designates ≥70 licks/sec and <165 licks/sec)”.
For the compound `NC1CCCOCC1` (stereo not shown) [Compound I-4], the “Early Phase” value was “B (‘B’ designates ≥70 licks/sec and <165 licks/sec)”; the “Late Phase” value was “C (‘C’ designates ≥165 licks/sec)”.
